Results: patent US20140045823A1 (Neurocrine Biosciences, Inc., priority 2012, published 2014)

Biological target: T1, human GPR119 (Homo sapiens, UniProt Q8TDV5)
T1 construct: expression vector for human GPR119 cDNA (Acc. No. NP_848566); expressed in transfected cells; Min-6/hGPR119
T1 sequence (Q8TDV5 1-335): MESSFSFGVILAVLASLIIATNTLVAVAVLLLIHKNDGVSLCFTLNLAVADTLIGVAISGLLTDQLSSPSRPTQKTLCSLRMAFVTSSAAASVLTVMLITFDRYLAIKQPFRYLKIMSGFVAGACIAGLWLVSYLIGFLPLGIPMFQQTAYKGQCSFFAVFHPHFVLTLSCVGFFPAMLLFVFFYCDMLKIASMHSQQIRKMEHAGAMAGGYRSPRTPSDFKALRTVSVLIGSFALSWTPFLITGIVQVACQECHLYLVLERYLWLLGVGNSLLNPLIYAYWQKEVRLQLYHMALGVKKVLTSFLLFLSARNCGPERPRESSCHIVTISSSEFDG
Assay: AlphaScreen cAMP assay in MIN6 cells stably transfected with human GPR119
Assay type: cell-based
Settings: Min-6/hGPR119 cells, 45 min at room temperature
Protocol: The compounds of formula I according to the invention modulate the activity of the G-protein-coupled receptor GPR119. The effect of the compounds on the activation of GPR119 and on the stimulation of intracellular cAMP concentration is determined using the AlphaScreen cAMP Assay Kit (Cat. No. #6760625R) made by PerkinElmer.
MIN6 cells [Miyazaki J et al. Endocrinology. 1990 July; 127(1):126-32] are stably transfected with an expression vector for human GPR119 cDNA (Acc. No. NP_848566). Min-6/hGPR119 cells are cultured in DMEM, 10% FBS, 50 μM β-mercaptoethanol, 0.3 mg/mL Geniticin, 2 mM GlutaMAX at 37° C. 5% CO2. For the assay, the cells are seeded in Optiplates (white, 384-well, 160 W—barcoded, TC, sterile with lid, Cat. No. #6007688 (Perkin Elmer); 10000 cells/well; 50 μl). The plates covered with lids are then incubated for 24 hours at 37° C./5% CO2. After the medium is aspirated from the wells completely, 10 μl of the test compound are added, the compounds are diluted using stimulating buffer (140 mM NaCl, 3.6 mM KCl, 0.5 mM NaH2PO4, 0.5 mM MgSO4, 1.5 mM CaCl2, 10 mM Hepes, 5 mM NaHCO3; pH 7.4. 0.5 mM IBMX and 0.1% BSA, the final DMSO concentration is 1%). After 45 minutes incubation at room temperature (approx. 20° C.), the cAMP concentrations are determined using the AlphaScreen cAMP Assay Kit (Cat. No. #6760625R from PerkinElmer).

| Structure (SMILES) | EC50 |
| --- | --- |
| Cc1ncoc1-c1ccc(C(=O)N(C2CC2)C2CCN(C(=O)OC(C)(C)C)CC2)cn1 [Example 13, 4-{Cyclopropyl-[6-(4-methyl-oxazol-5-yl)-pyridine-3-carbonyl]amino}-piperidine-1-carboxylic acid tert-butyl ester] | 132 nM |
| CC(C)(C)OC(=O)N1CCC(N(C(=O)c2cnc(-c3cnco3)c(F)c2)C2CC2)CC1 [Example 14, 4-[Cyclopropyl-(5-fluoro-6-oxazol-5-yl-pyridine-3-carbonyl)-amino]-piperidine-1-carboxylic acid tert-butyl ester] | 145 nM |
| COC(=O)c1ccc(-n2cnc(C(=O)N(C3CC3)C3CCN(C(=O)OC(C)(C)C)CC3)c2)c(F)c1 [Example 15, 4-{Cyclopropyl-[1-(2-fluoro-4-methoxycarbonyl-phenyl)-1H-imidazole-4-carbonyl]-amino}-piperidine-1-carboxylic acid tert-butyl ester] | 157 nM |
| CC(C)(C)OC(=O)N1CCC(N(C(=O)c2cn(-c3ccc(C#N)cc3F)cn2)C2CC2)CC1 [Example 16, 4-{[1-(4-Cyano-2-fluoro-phenyl)-1H-imidazole-4-carbonyl]-cyclopropyl-amino}-piperidine-1-carboxylic acid tert-butyl ester] | 66 nM |
| CC(C)(C)OC(=O)N1CCC(N(C(=O)c2cn(-c3ccc(S(C)(=O)=O)cc3)cn2)C2CC2)CC1 [Example 17, 4-{Cyclopropyl-[1-(4-methanesulfonyl-phenyl)-1H-imidazole-4-carbonyl]-amino}-piperidine-1-carboxylic acid tert-butyl ester] | 680 nM |
| CC(C)(C)OC(=O)N1CCC(N(C(=O)c2noc(-c3ccc(C#N)cc3F)n2)C2CC2)CC1 [Example 18, 4-{[5-(4-Cyano-2-fluoro-phenyl)-[1,2,4]oxadiazole-3-carbonyl]-cyclopropyl-amino}-piperidine-1-carboxylic acid tert-butyl ester] | 5 nM |
| CC(C)(C)OC(=O)N1CCC(N(C(=O)c2noc(-c3ccc(S(C)(=O)=O)cc3F)n2)C2CC2)CC1 [Example 19, 4-{Cyclopropyl-[5-(2-fluoro-4-methanesulfonyl-phenyl)-[1,2,4]oxadiazole-3-carbonyl]-amino}-piperidine-1-carboxylic acid tert-butyl ester] | 21 nM |
| CC(C)(C)OC(=O)N1CCC(N(C(=O)c2noc(-c3ccc(C#N)c(F)c3)n2)C2CC2)CC1 [Example 20, 4-{[5-(4-Cyano-3-fluoro-phenyl)-[1,2,4]oxadiazole-3-carbonyl]-cyclopropyl-amino}-piperidine-1-carboxylic acid tert-butyl ester] | 7 nM |
| CC(C)(C)OC(=O)N1CCC(N(C(=O)c2noc(-c3ccc(S(C)(=O)=O)c(F)c3)n2)C2CC2)CC1 [Example 21, 4-{Cyclopropyl-[5-(3-fluoro-4-methanesulfonyl-phenyl)-[1,2,4]oxadiazole-3-carbonyl]-amino}-piperidine-1-carboxylic acid tert-butyl ester] | 33 nM |
| CC(C)(C)OC(=O)N1CCC(N(C(=O)c2nc(-c3ccc(Br)cc3F)no2)C2CC2)CC1 [Example 22, 4-{[3-(4-Bromo-2-fluoro-phenyl)-[1,2,4]oxadiazole-5-carbonyl]-cyclopropyl-amino}-piperidine-1-carboxylic acid tert-butyl ester] | 210 nM |
| CC(C)(C)OC(=O)N1CCC(N(C(=O)c2coc(-c3ccc(C#N)cc3F)n2)C2CC2)CC1 [Example 23, 4-{[2-(4-Cyano-2-fluoro-phenyl)-oxazole-4-carbonyl]-cyclopropyl-amino}-piperidine-1-carboxylic acid tert-butyl ester] | 18 nM |
| CC(C)(C)OC(=O)N1CCC(N(C(=O)c2coc(-c3ccc(C#N)c(F)c3)n2)C2CC2)CC1 [Example 24, 4-{[2-(4-Cyano-3-fluoro-phenyl)-oxazole-4-carbonyl]-cyclopropyl-amino}-piperidine-1-carboxylic acid tert-butyl ester] | 42 nM |
| CC(C)(C)OC(=O)N1CCC(N(C(=O)c2coc(-c3ccc(S(C)(=O)=O)cc3F)n2)C2CC2)CC1 [Example 25] | 97 nM |
| CCNC(=O)c1ccc(-c2nc(C(=O)N(C3CC3)C3CCN(C(=O)OC(C)(C)C)CC3)co2)cc1 [Example 26, 4-{Cyclopropyl-[2-(4-ethylcarbamoyl-phenyl)-oxazole-4-carbonyl]-amino}-piperidine-1-carboxylic acid tert-butyl ester] | 360 nM |
| CC(C)(C)OC(=O)N1CCC(N(C(=O)c2coc(-c3cnco3)n2)C2CC2)CC1 [Example 27, 4-[([2,5′]Bioxazolyl-4-carbonyl)-cyclopropyl-amino]-piperidine-1-carboxylic acid tert-butyl ester] | 1800 nM |
| CC(C)(C)OC(=O)N1CCC(N(C(=O)c2coc(-c3ccc(S(C)(=O)=O)c(F)c3)n2)C2CC2)CC1 [Example 28, 4-{Cyclopropyl-[2-(3-fluoro-4-methanesulfonyl-phenyl)-oxazole-4-carbonyl]-amino}-piperidine-1-carboxylic acid tert-butyl ester] | 159 nM |
| CC(C)(C)OC(=O)N1CCC(N(C(=O)c2coc(-c3ccc(C#N)cc3)n2)C2CC2)CC1 [Example 29, 4-{[2-(4-Cyano-phenyl)-oxazole-4-carbonyl]-cyclopropyl-amino}-piperidine-1-carboxylic acid tert-butyl ester] | 118 nM |
| CC(C)(C)OC(=O)N1CCC(N(C(=O)c2cnc(-c3ccc(S(C)(=O)=O)cc3F)o2)C2CC2)CC1 [Example 30, 4-{Cyclopropyl-[2-(2-fluoro-4-methanesulfonyl-phenyl)-oxazole-5-carbonyl]-amino}-piperidine-1-carboxylic acid tert-butyl ester] | 176 nM |

Other lines, results leading:

| EC50 | Structure (SMILES) |
| --- | --- |
| 48 nM | CC(C)(C)OC(=O)N1CCC(N(C(=O)c2cnc(-c3ccc(C#N)cc3F)o2)C2CC2)CC1 [Example 31, 4-{[2-(4-Cyano-2-fluoro-phenyl)-oxazole-5-carbonyl]-cyclopropyl-amino}-piperidine-1-carboxylic acid tert-butyl ester] |
| 35 nM | CC(C)(C)OC(=O)N1CCC(N(C(=O)c2cnc(-c3ccc(C#N)c(F)c3)o2)C2CC2)CC1 [Example 32, 4-{[2-(4-Cyano-3-fluoro-phenyl)-oxazole-5-carbonyl]-cyclopropyl-amino}-piperidine-1-carboxylic acid tert-butyl ester] |
| 639 nM | CC(C)(C)OC(=O)N1CCC(N(C(=O)c2cnc(-c3cnco3)o2)C2CC2)CC1 [Example 33, 4-[([2,5′]Bioxazolyl-5-carbonyl)-cyclopropyl-amino]-piperidine-1-carboxylic acid tert-butyl ester] |
| 86 nM | CC(C)(C)OC(=O)N1CCC(N(C(=O)c2cnc(-c3ccc(S(C)(=O)=O)c(F)c3)o2)C2CC2)CC1 [Example 34, 4-{Cyclopropyl-[2-(3-fluoro-4-methanesulfonyl-phenyl)-oxazole-5-carbonyl]-amino}-piperidine-1-carboxylic acid tert-butyl ester] |
| 136 nM | CC(C)(C)OC(=O)N1CCC(N(C(=O)c2cnc(-c3ccc(C#N)cc3)o2)C2CC2)CC1 [Example 35, 4-{[2-(4-Cyano-phenyl)-oxazole-5-carbonyl]-cyclopropyl-amino}-piperidine-1-carboxylic acid tert-butyl ester] |
| 358 nM | CC(C)(C)OC(=O)N1CCC(N(C(=O)c2ncc(-c3ccc(S(C)(=O)=O)cc3)o2)C2CC2)CC1 [Example 36, 4-{Cyclopropyl-[5-(4-methanesulfonyl-phenyl)-oxazole-2-carbonyl]-amino}-piperidine-1-carboxylic acid tert-butyl ester] |
| 142 nM | CC(C)(C)OC(=O)N1CCC(N(C(=O)c2ncc(-c3ccc(C#N)cc3)o2)C2CC2)CC1 [Example 37, 4-{[5-(4-Cyano-phenyl)-oxazole-2-carbonyl]-cyclopropyl-amino}-piperidine-1-carboxylic acid tert-butyl ester] |
| 9 nM | CC(C)(C)OC(=O)N1CCC(N(C(=O)c2cc(-c3ccc(C#N)cc3)on2)C2CC2)CC1 [Example 38, 4-{-[5-(4-Cyano-phenyl)-isoxazole-3-carbonyl]-cyclopropyl-amino}-piperidine-1-carboxylic acid tert-butyl ester] |
| 3 nM | CC(C)(C)OC(=O)N1CCC(N(C(=O)c2cc(-c3ccc(C#N)cc3F)on2)C2CC2)CC1 [Example 39, 4-{[5-(4-Cyano-2-fluoro-phenyl)-isoxazole-3-carbonyl]-cyclopropyl-amino}-piperidine-1-carboxylic acid tert-butyl ester] |
